Laboratory results taken from article PMC11205194 (Marine Drugs, 2024).

Test system: SARS-CoV-2 3CLpro
Conditions: pH 7; for Inhibition of free 3CL protease by synthesized peptides: SD

| Compound | Inhibition of the 3CLpro control's enzymatic activity | Inhibition of free 3CL protease by synthesized peptides |
| --- | --- | --- |
| COc1cccc2[nH]c(C(=O)N[C@@H](CC(C)C)C(=O)N[C@@H](C[C@@H]3CCNC3=O)C(=O)CO)cc12 [PF-00835231, reference compound] | 94.9% | – |
| EVLEFFKYIE [PEP 5] | – | 0.01 ± 3.8% |
| EVLEFFKYLE [PEP 7] | – | 7.6 ± 1.3% |
| VVGVVVY [PEP 1, Val-Val-Gly-Val-Val-Val-Tyr] | – | 9.3 ± 5.7% |
